Columns and labels:
[1] = system: human lung cancer cells A549; test: Proliferation (cell density) of A549 tumor cells in culture; type: cell-based; details: FIG. 4A
Excerpt: (§1) The presence of 2-hydroxyoleic acid and/or its analogs in the cells induces activation of the signal pathway associated with p53, which induces the start of apoptosis or stopping of the cell cycle in various types of tumor cells. With the aim of carrying out the first objective of the present invention, in vitro and in vivo models were used.

[2] = system: Jurkat cells of human leukemia; test: Proliferation (cell density) of Jurkat tumor cells in culture; type: cell-based; details: FIG. 4B
Excerpt: as §1

[3] = system: systolic arterial pressure; test: Blood pressure in Sprague-Dowley rats; type: in vivo; details: for systolic arterial pressure after acute treatment, in words: Sprague-Dowley rats, FIG. 10
Description: These reductions were of an acute form (at 2 hours of treatment, 19±6 mmHg, P<0.01, n=6) and of a chronic form (1 week, 26±7 mmHg, P<0.001, n=6).
Lower doses of this molecule (1-10 mg/kg) produced similar effects, but less marked. *P<0.01.

[4] = Temperature of transition from lamellar to hexagonal structure (HII) of DEPE membranes, X-ray diffraction/scattering; details: for TH, lamellar-hexagonal transition of DEPE: phospholipid:analog 20:1 mol:mol, Table 2, control 61
Description: The control value (in the absence of 2-hydroxyoleic) is 63° C. […] This important modification of the cell membrane has important consequences for molecular and cellular function. All the analogs of 2-hydroxyoleic tested that have therapeutic activity also induce effects on the membrane structure (Table 2).
Using this technique, we established that the structure of the membrane is altered by 2-hydroxyoleic acid and its analogs. The lowering of the temperature of transition from lamellar to hexagonal structure indicates an important effect on rearrangement of the lipid molecules in the membrane. This regulation of rearrangement forms the basis of the effect exerted by 2-hydroxyoleic acid and its analogs.

[5] = system: cerebral tumor metastases, formed from a lung adenocarcinoma; test: Brain metastases of lung adenocarcinoma in a patient; type: in vivo, human; details: previous chemotherapy and radiotherapy without effect
Excerpt: The antitumor efficacy of 2-hydroxyoleic acid and its […] is shown in FIG. 8, in which we can see the disappearance of some cerebral tumor metastases, formed from a lung adenocarcinoma, after treatment with 2-hydroxyoleic acid.
Regulation of the Activity of G-Proteins Controls Blood Pressure.
The image on the left (8a) corresponds to the tumors before treatment and those on the right (8b, 8c and 8d) correspond to the tumors after treatment with 2-hydroxyoleic on various dates.

G-proteins = test: Binding of [35S]GTPγS to membranes of NIH 3T3 cells transfected with the rat adrenoceptor α2A/D (activity of G-proteins); type: biochemical
Excerpt: Hydroxyoleic acid and related compounds are capable of modulating the activity of G-proteins, measured by the binding of [^35S] GTPγS (FIG. 5).
The analogs of 2-hydroxyoleic produce an effect similar to that of 2-hydroxyoleic acid.

purified G-proteins = test: Activity of purified G-proteins in the absence of membrane; type: biochemical
Excerpt: (§2) This is because these molecules have an influence on the interaction of G-proteins with membranes and therefore on their cellular localization, as is shown in the photographs from confocal microscopy (FIG. 2). The effect of hydroxyoleic acid and its analogs on the localization and activity of G-proteins is not due to a direct interaction on them.
FIG. 6: Hydroxyoleic acid and its analogs had no effect on pure G-proteins (in the absence of membrane).

[6] = Body weight of rats in chronic treatment; type: in vivo; details: seventh day, Sprague-Dowley rat aged 2-3 months
Excerpt: Rats treated with these molecules lost body weight during chronic treatments (from 5 to 17 days). In these experiments, rats treated with 2-hydroxyoleic acid or its analogs, in particular aminoleic acid, had free access to food and water, in the same way as the control group of treated rats (FIG. 11). In these conditions there was a progressive decrease in the rats' body weight starting from the first day of treatment, up to 17 grams on the seventh day of treatment (5% of the normal body weight of a Sprague-Dowley rat aged 2-3 months). […] Similar experiments carried out on adult mice, for periods of up to 28 days with 2-hydroxyoleic acid, show reductions in body weight from 15% to 25%, relative to control mice (treated with vehicle).
The animals (Sprague-Dowley rats) had free access to food and water at any time.

heart rate = test: Heart rate during hypotensive treatment; type: in vivo; details: FIGS. 9a, 9b and 10
Description: The hypotensive effect produced by 2-hydroxyoleic acid and its analogs is that it induces a reduction in blood pressure of an acute form (which is evident from 2 hours of treatment) and chronic (which is maintained for days and weeks while the treatment is maintained). Aminoleic acid, for example, reduces blood pressure by 15 mmHg in chronic treatments lasting a week. These fatty acids regulate communication between receptor, G-protein and effector. The result is a modulation of the signals of cyclic AMP, phospholipase C and nitric oxide, which gives rise to a reduction in blood pressure. This effect is also connected with regulation of the membrane structure. […] An additional advantage of these compounds is that they control other cardiovascular risk factors: the serum lipid/lipoprotein profile and body weight (see below).

[7] = system: human lung cancer cells A549; test: Cell cycle proteins (cdk2, cyclin B, cyclin D3, p21) in A549 cells; type: cell-based
Excerpt: (§3) In this way, inhibition of cell proliferation is achieved, as was confirmed by the appreciable and significant increases in the levels of the protein p21 and the decreases in the cell cycle proteins cdk2 and cyclins B and D3 (FIGS. 3A and B). Moreover, it has been observed that in cells in culture, 2-hydroxyoleic acid and its analogs induce significant increases in protein kinase C (increase of between 40% and 120%).
(§4) Similar effects were produced by all the analogs tested that comply with the general structural formula given earlier. […] This antiproliferative effect was also observed using other techniques and other cell types: in rat primary astrocytes, these fatty acids have an antiproliferative effect, which I studied by incorporating tritiated thymidine. Moreover, hydroxyoleic acid and its analogs are able to induce apoptosis or programmed cell death in human cancer cells. […] Using flow cytometry experiments, it was established that in the presence of 2-hydroxyoleic acid the number of live human leukemia cells (Jurkat) was only 10% of those that remained alive with Etoposide, a known antitumor agent.
Protein p21 inhibits the cell cycle, so it is an antiproliferative protein. […] The decrease in levels of this enzyme, or evidence of its degradation, indicate the start of apoptosis or programmed cell death. […]

[8] = system: human leukemia cells (Jurkat); test: Degradation of poly-ADP ribose polymerase (PARP) in Jurkat cells; type: cell-based; details: Jurkat cells, 10, 100 and 1000 μM, FIG. 3C
Excerpt: as §4
Protein p21 inhibits the cell cycle, so it is an antiproliferative protein. […] The decrease in levels of this enzyme, or evidence of its degradation, indicate the start of apoptosis or programmed cell death. In these experiments Etoposide was used as the positive control, as this molecule is known to be an inducer of apoptosis and an antitumor agent.

[9] = system: human leukemia cells (Jurkat); test: Flow cytometry, number of live Jurkat cells; type: cell-based
Excerpt: as §4

Gαi2 protein = test: Cellular localization of fluorescein-labeled Gαi2 protein, confocal microscopy; type: cell-based; details: primary astrocytes of rat brain, FIG. 2
Excerpt: as §2, §3
In control cells, the labeling indicates the presence of this protein throughout the cell, especially in the nucleus (arrow).

[10] = system: systolic arterial pressure; test: Blood pressure in humans; type: in vivo; details: 30 mg/kg, FIG. 9b
Excerpt: The days prior to treatment are shown with negative values. *P<0.05, **P<0.01.

CCCCCC/C=C\CCCCCCCC(=O)O [palmitoleic acid, palmitoleic (cis-9-hexadecenoic)acid]
effect on proliferation of A549 cells [1]: induce stoppage of division and the death of tumor cells
effect on proliferation of Jurkat cells [2]: induce stoppage of division and the death of tumor cells
systolic arterial pressure after acute treatment, in words [3]: significant decreases

CCCCCCCC/C=C\CCCCCCCCCCCCCC(=O)O [Nervonic acid, nervonic (cis-15-tetracosenoic)acid]
effect on proliferation of A549 cells [1]: induce stoppage of division and the death of tumor cells
TH, lamellar-hexagonal transition of DEPE [4]: 55 °C
effect on proliferation of Jurkat cells [2]: induce stoppage of division and the death of tumor cells
systolic arterial pressure after acute treatment, in words [3]: significant decreases

CCCCCCCC/C=C\CCCCCCCC(=O)O [Oleic acid, oleic (cis-9-octadecenoic)acid]
effect on proliferation of A549 cells [1]: induce stoppage of division and the death of tumor cells
effect on brain tumors (metastases) in a patient ([5]; FIG. 8): complete disappearance of the cancer
TH, lamellar-hexagonal transition of DEPE [4]: 45 °C
effect on proliferation of Jurkat cells [2]: induce stoppage of division and the death of tumor cells
systolic arterial pressure after acute treatment, in words [3]: significant decreases

COc1cccc2c1C(=O)c1c(O)c3c(c(O)c1C2=O)C[C@@](O)(C(C)=O)C[C@@H]3O[C@H]1C[C@H](N)[C@H](O)[C@H](C)O1 [daunomycin, reference compound]
inhibition in the activity of G-proteins (G-proteins; 200 μM, membranes of NIH 3T3 cells): 46%
influence on the activity of purified G-proteins (purified G-proteins; FIG. 6): did not have an influence
influence on the activity of purified G-proteins (purified G-proteins; FIG. 6, listed as Daunomycin): behavior similar to the control

CCCCCCCC/C=C\CCCCCCC(N)C(=O)O (stereo not drawn) [Aminoleic acid, 2-amino-oleic (2-amino-cis-9-octadecenoic)acid]
decrease in body weight as share of normal body weight [6]: 5%
effect on proliferation of A549 cells [1]: induce stoppage of division and the death of tumor cells
TH, lamellar-hexagonal transition of DEPE [4]: 49 °C
effect on proliferation of Jurkat cells [2]: induce stoppage of division and the death of tumor cells
reduction of blood pressure, chronic treatments lasting a week ([3]; species not printed at the place): 15 mmHg

CCCCCCCC/C=C\CCCCCCC(O)C(=O)O (stereo not drawn) [2-hydroxyoleic acid, cis-2-hydroxy-9-octadecenoic acid]
decrease in body weight as share of normal body weight [6]: 5%
effect on proliferation of A549 cells [1]: induce stoppage of division and the death of tumor cells
function of the G-proteins ([35S]GTPγS binding), in words (G-proteins; FIG. 5): decrease in function of the G-proteins even greater than the anthracycline daunomycin
effect on heart rate (heart rate): without altering the heart rate
effect on brain tumors (metastases) in a patient ([5]; FIG. 8): complete disappearance of the cancer
effect on brain tumors (metastases) in a patient ([5]; FIG. 8, listed as 2-hydroxyoleic): one of the tumors disappeared more quickly and the other one more slowly
cell cycle proteins cdk2, cyclin B and cyclin D3 ([7]; FIG. 3A): decrease
p21 protein ([7]; incubation for 24 and 48 hours, FIG. 3B): large increases
poly-ADP ribose polymerase (PARP) levels [8]: degradation
TH, temperature of transition from lamellar to hexagonal structure ([4]; DEPE:2OHOA 10:1 mol:mol): 41 °C
TH, temperature of transition from lamellar to hexagonal structure ([4]; DEPE:2OHOA 20:1 mol:mol): 48 °C
TH, temperature of transition from lamellar to hexagonal structure ([4]; DEPE:2OHOA 40:1 mol:mol): 54 °C
influence on the activity of purified G-proteins (purified G-proteins; FIG. 6, listed as Hydroxyoleic acid): no effect
influence on the activity of purified G-proteins (purified G-proteins; FIG. 6, listed as hydroxyoleic): did not have an influence
number of live Jurkat cells relative to those that remained alive with Etoposide [9]: 10%
effect on proliferation of Jurkat cells [2]: induce stoppage of division and the death of tumor cells
systolic arterial pressure after acute treatment, in words [3]: significant decreases
blood pressure at lower doses, in words ([3]; acute and chronic treatments from 1 mg/kg to 10 mg/kg): significant reductions
reduction of blood pressure, chronic ([3]; rats, 1 week, 3 daily injections of 30 mg/kg): 26±7 mmHg
reduction of blood pressure, acute ([3]; rats, at 2 hours of treatment, 30 mg/kg): 19±6 mmHg
cellular localization of Gαi2 protein (Gαi2 protein): in membrane and cytosol, but not in the nucleus
blood pressure in humans, in words [10]: significant, large decreases

CCCCCC/C=C\CCCCCCCCCC(=O)O [cis-Vaccenic acid, cis-vaccenic (cis-11-octadecenoic)acid]
TH, lamellar-hexagonal transition of DEPE [4]: 53 °C
systolic arterial pressure after acute treatment, in words [3]: significant decreases

CCCCCCCC/C=C\CCCCCCC(C)C(=O)O (stereo not drawn) [Methyloleic acid, 2-methyl-oleic (2-methyl-cis-9-octadecenoic)acid]
effect on proliferation of A549 cells [1]: induce stoppage of division and the death of tumor cells
TH, lamellar-hexagonal transition of DEPE [4]: 50 °C
effect on proliferation of Jurkat cells [2]: induce stoppage of division and the death of tumor cells
systolic arterial pressure after acute treatment, in words [3]: significant decreases

From patent US8778995B2, “Use of hydroxyoleic acid and related compounds in the manufacture of drugs” (Universitat de les Illies Balears, priority 2001, dated 2014)
